In series [1] the test system is BVDV. Description: BVDV inactivation in spiked human RBCC by hypericin with luciferase system. The format is cell-based, Bovine Viral Diarrhea Virus. Conditions: for Unwashed Titer / Washed Titer: RT 2 hours in the dark; for Unwashed Titer / Unwashed VRF: unwashed samples; for Unwashed Titer: doses per sample label; for Washed Titer / Washed VRF: washed samples; for Combined VRF: treatment plus washing, compared to unwashed untreated RBC control; for Unwashed VRF: compared to titer of untreated RBC control; for Washed VRF: compared to washed untreated RBC control. As to the method: Ten different combinations of DMEM (—Ca^++, —Mg^++), RBCC, virus, hypericin, Luciferin, ATP and luciferase were prepared to all contain equivalent titers of BVDV calculated to be 6.48 log10TCID50/mL based on the titer of the original virus stock. The concentrations of hypericin tested were 0, 40 and 200 μg/mL. Luciferase was tested at 0, 0.8 and 4.0 μM. Luciferin and ATP were present at 80 and 800 μM respectively when luciferase was present and absent in the absence of luciferase.
The components were mixed and incubated at RT for 2 hours in the dark followed by titration of unwashed and washed samples as previously described. Washing rows of wells with dilutions 1 and 2 was performed 3 days post-infection. Final CPEs were read 10 days post-infection.
The various combinations tested, the titers obtained and the calculated VRFs compared to the titer of the untreated RBC control are listed in Table 2.

For series [2], the system named is BVDV. Nature of the series: BVDV inactivation in spiked RBCC by doxorubicin alone. It counts as cell-based, Bovine Viral Diarrhea Virus. Particulars: for Unwashed Titer / Washed Titer: 37° C. 2 hours in the dark; for Unwashed Titer: doxorubicin Low = 0.53 mM, High = 1.6 mM; for Combined VRF: treatment plus washing, compared to mean unwashed RBC controls; for Unwashed VRF: compared to mean titer of untreated RBC controls; for Washed VRF: compared to mean titer of washed untreated RBC controls. As to the method: Two levels of doxorubicin (low and high), RBCC, virus and DMEM (—Ca^++, —Mg^++) were prepared to all contain equivalent titers of BVDV calculated to be 6.23 log10 TCID50/mL (logs) based on the titer of the original virus stock.
The components were mixed and incubated at 37° C. for 2 hours in the dark followed by titration of unwashed and washed samples as previously described. Washing rows of wells with dilutions 1 and 2 was performed the next day. Final CPE were read 2 weeks post-infection. Cells were also monitored for cytotoxicity from the treatment components other than the virus 1 day and 2 weeks post-infection as in previous experiments.
The various combinations tested, the titers obtained and the calculated VRFs compared to the mean titer of the untreated RBC controls are listed in Table 4. There was no hemolysis or clumping for any of the samples at the end of the treatment period.

Series [3] deals with Human Adenovirus-2 (HAd-2). Description: Earlier inactivation of HAd-2 in unwashed RBCC samples. Particulars: doxorubicin alone, observed previously. The format is cell-based.
For series [4], the system named is RBC. Nature of the series: Cytotoxicity, interference, RBC morphology and integrity after hypericin treatment. It counts as cell-based. On the procedure:
Cytotoxicity and interference studies are performed per CPMP/FDA guidelines to calculate the reduction in viral titers due to these factors and exclude them from the calculated reduction factors resulting from the antiviral treatment. The antiviral compounds are removed from the system by washing the erythrocytes. Appropriate controls are kept to determine the contribution of washing to the viral reduction factors.

Bounds are passed on as bounds.

With `Cc1cc(O)c2c(=O)c3c(O)cc(O)c4c5c(O)cc(O)c6c(=O)c7c(O)cc(C)c8c1c2c(c34)c(c78)c65` [HH-LN, Hypericin], in series [1], the “Unwashed Titer” value was 3.10 log10TCID50/mL, the “Washed Titer” value is listed as 2.48 log10TCID50/mL, the “Combined VRF” value was 3.87 logs and the “Unwashed VRF” value was 3.25 logs. Moreover, the “Washed VRF” value in series [1] is given as 1.50 logs.
Regarding `COc1cccc2c1C(=O)c1c(O)c3c(c(O)c1C2=O)C[C@@](O)(C(=O)CO)C[C@@H]3O[C@H]1C[C@H](N)[C@H](O)[C@H](C)O1` [Dox-H, Doxorubicin], in series [2], the “Unwashed Titer” value was 3.10 log10 TCID50/mL, the “Washed Titer” value was 3.10 log10 TCID50/mL, the “Combined VRF” value was found to be 2.50 logs and the “Unwashed VRF” value is 2.50 logs. In series [2], the “Washed VRF” value is reported as −0.19 logs.
`COc1cccc2c1C(=O)c1c(O)c3c(c(O)c1C2=O)C[C@@](O)(C(=O)CO)C[C@@H]3O[C@H]1C[C@H](N)[C@H](O)[C@H](C)O1` [Doxorubicin, (1S,3S)-3-glycoloyl-3,5,12-trihydroxy-10-methoxy-6,11-dioxo-1,2,3,4,6,11-hexahydrotetracen-1-yl 3-amino-2,3,6-trideoxy-α-L-lyxo-hexo-pyranoside]: in series [2] (doxorubicin treatment alone), the “viral inactivation activity against BVDV” value is given as “has viral inactivation activity”. For the same molecule, in series [3], the “viral inactivation activity against HAd-2 virus” value is recorded as “has viral inactivation activity”.
Consider `Cc1cc(O)c2c(=O)c3c(O)cc(O)c4c5c(O)cc(O)c6c(=O)c7c(O)cc(C)c8c1c2c(c34)c(c78)c65` [HL-LN, Hypericin], for which, in series [1], the “Unwashed Titer” value worked out at 3.48 log10TCID50/mL, the “Washed Titer” value is reported as less than 2.34 log10TCID50/mL, the “Combined VRF” value is given as more than 4.01 logs and the “Unwashed VRF” value is recorded as 2.87 logs. Further, the “Washed VRF” value in series [1] was more than 1.64 logs.
Take `COc1cccc2c1C(=O)c1c(O)c3c(c(O)c1C2=O)C[C@@](O)(C(=O)CO)C[C@@H]3O[C@H]1C[C@H](N)[C@H](O)[C@H](C)O1` [Dox-L, Doxorubicin]: in series [2], the “Unwashed Titer” value is listed as 3.23 log10 TCID50/mL, the “Washed Titer” value was 3.10 log10 TCID50/mL, the “Combined VRF” value turned out to be 2.50 logs and the “Unwashed VRF” value came out at 2.38 logs. Also, the “Washed VRF” value in series [2] is listed as −0.19 logs.
For `Cc1cc(O)c2c(=O)c3c(O)cc(O)c4c5c(O)cc(O)c6c(=O)c7c(O)cc(C)c8c1c2c(c34)c(c78)c65` [Hypericin], the “impact on cytotoxicity, interference, RBC morphology and integrity” value in series [4] (hypericin 40 μg/mL with CDP-Star 0.1 mM) and in series [4] (hypericin 40 μg/mL with luciferase 0.16 μM) was “very little impact” in each case.

Values taken from patent US20240335575A1, “METHOD AND APPARATUS FOR INACTIVATING PATHOGENS IN UNITS OF WHOLE BLOOD USING SUPERPARAMAGNETIC NANOPARTICLES COATED WITH CHEMILUMINESCENCE REAGENTS AND BROAD-SPECTRUM ANTI-VIRAL THERAPEUTICS” (Aphios Corporation, priority 2021, published 2024).
